Data taken from US12234223B2, “Phthalazinone compound, and preparation method therefor and medical use thereof” (SHANGHAI JEMINCARE PHARMACEUTICALS CO., LTD, priority 2020, dated 2025).

How the values were obtained:
[1] = system: VCaP cells; test: Inhibitory effect on VCaP cell proliferation (Cell Titer Glo); type: cell-based; details: Homo sapiens, 144 h; for IC50: VCaP cells, 5% FBS and 0.1 nM R1881, 6 days; for Emax: maximum degree of VCaP cell proliferation inhibition, 6 days
Method: A tumor cell line Vcap (ATCC Cat. No. CRL-2876) was respectively cultured with DMEM (Gibco Cat. No. 11965-092) medium containing 10% FBS (Gibco Cat. No. 10099-141C). During testing, Vcap cells were replaced with a DMEM culture fluid containing 5% FBS and 0.1 nM R1881 (Sigma Cat. No. R0908). The assay method was as follows:
Vcap cells were seeded to a 384-well plate (Perkin Elmer Cat. No. 6007460) at a cell density of 1200 cells/well and a volume of 20 μL/well; after the cells were incubated overnight in a carbon dioxide incubator (Thermo), the prepared compound solutions with different concentrations were added at a volume of 5 μL/well; meanwhile, a corresponding solvent was provided as a control; after the cells were continuously incubated in the incubator for 6 days, the cell plate and the contents thereof were equilibrated to room temperature; 25 μL of a Cell Titer Glor (Promega Cat. No. G7573) reagent was added to each well; after vibration and uniform mixing, incubation in the dark was performed for 10-30 minutes, and a signal value was detected with Envision microplate reader (PerkinElmer).
A percentage inhibition rate of compound-treated wells was calculated through solvent control wells on the plate, GraphPad prism was used to fit the percentage inhibition rate data corresponding to different concentrations, and IC50 value was calculated by a 4-parameter nonlinear logistic formula.
Emax: a maximum degree of VCaP cell proliferation inhibition. IC50: a compound concentration required to achieve half the maximum degree of VCaP cell proliferation inhibition.

[2] = In-vivo pharmacokinetics in mice, oral administration; design: species or system male CD1 mice; details: for AUC(0-inf) / Cmax / half-life: male, CD1, mouse, oral 10 mg/kg, plasma; for F: oral 10 mg/kg vs intravenous 1 mg/Kg
Method: In this experimental example, the in-vivo pharmacokinetic evaluation was made for mice by intravenous injection and oral administration.
Experimental methods and conditions: male CD1 mice, 6 to 8 weeks old; all animals had free access to food and water; 5 min, 15 min, 30 min, 1 hr, 2 hr, 4 hr, 8 hr and 24 hr after the mice were subjected to a single intravenous injection of 1 mg/Kg of a compound to be tested (solvent 5% DMSO/15% Solutol/80% Saline) (saline in the present application all means a saline solution), or 15 min, 30 min, 1 hr, 2 hr, 4 hr, 6 hr, 8 hr and 24 hr after the mice were subjected to oral intragastric administration of 10 mg/kg (solvent 5% DMSO/10% Solutol/85% Saline), blood was collected from orbits, not less than 50 μL of each sample was collected, and heparin sodium was used for anticoagulation; the collected samples were placed on ice, and the plasma was centrifugally separated within 1 hour for testing. The drug concentration in the plasma was detected by liquid chromatography tandem mass spectrometry (LC/MS/MS), and the pharmacokinetic parameters were calculated by Phoenix WinNonlin software. Embodiment 82 in CN110612294 A was taken as a control sample 1.

[3] = In-vivo pharmacokinetics in dogs, oral administration; design: species or system male Beijing Marshall beagles; details: for AUC(0-inf) / Cmax / half-life: male, beagle, dog, oral 10 mg/kg, plasma; for F: oral 10 mg/kg vs intravenous 1 mg/Kg
Method: In this experimental example, the in-vivo pharmacokinetic evaluation was made for dogs by intravenous injection and oral administration.
Experimental methods and conditions: male Beijing Marshall beagles, 12 to 18 months old; the beagles were subjected to administration half an hour after feeding; 5 min, 15 min, 30 min, 1 hr, 2 hr, 4 hr, 8 hr, 24 hr, 48 hr and 72 hr after the beagles were subjected to a single intravenous injection of 1 mg/Kg of a compound to be tested (solvent 5% DMSO/10% Solutol/85% Saline), or 15 min, 30 min, 1 hr, 2 hr, 4 hr, 6 hr, 8 hr, 24 hr, 48 hr and 72 hr after the beagles were subjected to oral intragastric administration of 10 mg/kg (solvent 5% DMSO/10% Solutol/85% Saline), blood was collected from orbits, not less than 50 μL of each sample was collected, and heparin sodium was used for anticoagulation; the collected samples were placed on ice, and the plasma was centrifugally separated within 1 hour for testing. The drug concentration in the plasma was detected by liquid chromatography tandem mass spectrometry (LC/MS/MS), and the pharmacokinetic parameters were calculated by Phoenix WinNonlin software. Embodiment 82 in CN110612294 A was taken as a control sample 1.

SMILES	IC50 [1] [nM]	Emax [1] [%]	AUC(0-inf) [2] [ng·h/mL]	Cmax [2] [ng/mL]	half-life [2] [h]	F [2] [%]	AUC(0-inf) [3] [ng·h/mL]	Cmax [3] [ng/mL]	half-life [3] [h]	F [3] [%]
CC1(C)[C@H](NC(=O)c2ccc(N3CCC(CN4CCN(c5ccc6c(=O)n(C7CCC(=O)NC7=O)nc(F)c6c5)CC4)CC3)cc2)C(C)(C)[C@H]1Oc1ccc(C#N)c(Cl)c1 (some centres unmarked) [Compound 29]	56	66	13400	677	7.91	24.1	–	–	–	–
CC1(C)[C@H](NC(=O)c2ccc(N3CCC(CN4CCN(c5ccc6c(=O)n(C7CCC(=O)NC7=O)ncc6c5)CC4)CC3)cc2)C(C)(C)[C@H]1Oc1ccc(C#N)c(Cl)c1 (some centres unmarked) [Compound 1]	–	–	18900	1260	6.22	68.8	14100	482	19.9	44.1
CC1(C)[C@H](NC(=O)c2ccc(N3CCC(CN4CCN(c5ccc6c(=O)n([C@H]7CCC(=O)NC7=O)ncc6c5)CC4)CC3)cc2)C(C)(C)[C@H]1Oc1ccc(C#N)c(Cl)c1 [Compound 28A]	9.7	74	–	–	–	–	15400	868	34.3	33.9
